In ChEMBL document CHEMBL1142482, “Synthesis of novel benzamidine- and guanidine-derived polyazamacrocycles: Selective anti-protozoal activity for human African trypanosomiasis” (Bioorg Med Chem Lett, 2008):

Columns and labels:
Trypanosoma brucei = assay: Antitrypanosomal activity against bloodstream Trypanosoma brucei P2 by Alamar blue assay; format: functional, organism-based
[1] = Cytotoxicity against HEK cells; format: cell-based; details: Homo sapiens, HEK293
Plasmodium falciparum = assay: Antiplasmodial activity against Plasmodium falciparum; format: functional, organism-based
[2] = Lipophilicity, log P of the compound; format: physicochemical; details: octanol/water

SMILES	EC50 (Trypanosoma brucei)	EC50 [1]	EC50 (Plasmodium falciparum)	logP [2]
c1ccc2c(c1)ccc1ccc(C3CNCCNCCNCCN3)cc12 (stereo unspecified)	1.3 µM	24.9 µM	< 1.5 µM	–
N=C(N)NCc1ccc(C2CNCCNCCNCCN2)cc1 (stereo unspecified)	41.2 µM	> 200 µM	> 100 µM	-1.64
N=C(N)c1ccc(C2CNCCNCCNCCN2)cc1 (stereo unspecified)	22 µM	> 200 µM	> 100 µM	-1.44
O=C(Nc1ccc([N+](=O)[O-])cc1)OCCN1CCN(CCOC(=O)Nc2ccc([N+](=O)[O-])cc2)CCN(CCOC(=O)Nc2ccc([N+](=O)[O-])cc2)CCN(CCOC(=O)Nc2ccc([N+](=O)[O-])cc2)CC1	0.5 µM	1.3 µM	–	–
NCc1ccc(C2CNCCNCCNCCN2)cc1 (stereo unspecified)	> 200 µM	> 200 µM	> 100 µM	-1.12
N#Cc1ccc(C2CNCCNCCNCCN2)cc1 (stereo unspecified)	> 200 µM	> 200 µM	> 100 µM	-0.65
